Entries after “also recorded” stand apart in the source; their conditions may differ. Read-outs that look alike come from different tables or passages of the source.

The target of data set [1] is T1, Serotonin transporter (SERT) (Macaca mulatta, UniProt Q9MYX0).
T1 construct: in monkey striatum homogenates; from tissue; host or cells: monkey striatum homogenate
The data set is described as follows: (3H)citalopram competition binding in monkey striatum homogenates. To be noted: for SERT/DAT Selectivity: fold selectivity for serotonin over dopamine transporter. The protocol: Initial screening procedures for non-amines were conducted in primate striatum, a standard source of brain transporters for drug screening and for generating structure-activity relationships for this series (Table 1). […] The binding experiments were terminated by rapid filtration and radioactivity measured as described above. […] The experiments were performed in triplicate and each value is the mean ±S.E. of 2-5 independent experiments.
(§1) Values were determined by fitting data to the equation for competitive binding with EBDA computer program. Data represent the mean ±S.D. of two or more experiments.

For data set [2], the target named is T2, Dopamine transporter (DAT) (Macaca fascicularis, UniProt Q9GJT6).
T2 construct: in monkey striatum homogenates; from tissue; host or cells: monkey striatum homogenate
The experiment in a line: (3H)CFT competition binding in monkey striatum homogenates. As for the experimental part: as §1

For data set [3], the target named is T3, human SERT (Homo sapiens, UniProt P31645).
T3 construct: expressed in transfected cells; host or cells: HEK-293 (stably or transiently transfected, pcDNA3.1 vector)
The data set is described as follows: (3H)citalopram binding in HEK-293 cells transfected with the human SERT.

For data set [4], the target named is T3, human SERT. The data set is described as follows: (3H)serotonin transport in HEK-293 cells transfected with the human SERT. It is filed as cell-based. Particulars: for blocked (3H)serotonin transport (in words): comparable to imipramine, fluoxetine and amitriptyline.
Where [5] appears, read: monkey striatum, 1 nM (3H)CFT, mean ± S.D., read-out: Dopamine transporter (DAT) IC50.
The mark [6] stands for this setting: (3H)serotonin transport Ki, HEK-293 cells with human SERT, 20 nM (3H)serotonin, mean ± S.E.M.
[7] abbreviates: HEK-293 cells with human SERT, 1 nM (3H)citalopram, mean ± S.E.M., read-out: (3H)citalopram binding Ki.

T1 sequence (Q9MYX0 whole entry): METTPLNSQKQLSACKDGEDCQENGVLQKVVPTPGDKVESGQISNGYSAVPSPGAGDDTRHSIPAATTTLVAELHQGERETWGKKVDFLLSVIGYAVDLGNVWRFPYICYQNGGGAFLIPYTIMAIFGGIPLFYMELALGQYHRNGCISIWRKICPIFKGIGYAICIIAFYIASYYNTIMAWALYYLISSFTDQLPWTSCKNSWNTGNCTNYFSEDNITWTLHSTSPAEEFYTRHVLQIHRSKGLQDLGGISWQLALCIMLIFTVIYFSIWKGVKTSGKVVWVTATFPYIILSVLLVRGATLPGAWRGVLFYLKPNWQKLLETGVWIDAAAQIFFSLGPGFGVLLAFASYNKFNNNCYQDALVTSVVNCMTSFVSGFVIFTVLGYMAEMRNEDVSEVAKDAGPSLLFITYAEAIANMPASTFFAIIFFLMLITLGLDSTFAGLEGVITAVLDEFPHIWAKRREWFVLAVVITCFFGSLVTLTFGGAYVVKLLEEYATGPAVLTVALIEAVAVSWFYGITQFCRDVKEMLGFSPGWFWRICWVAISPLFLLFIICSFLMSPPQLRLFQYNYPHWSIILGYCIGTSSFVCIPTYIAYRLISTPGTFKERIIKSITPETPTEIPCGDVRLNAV
T3 sequence (P31645 whole entry): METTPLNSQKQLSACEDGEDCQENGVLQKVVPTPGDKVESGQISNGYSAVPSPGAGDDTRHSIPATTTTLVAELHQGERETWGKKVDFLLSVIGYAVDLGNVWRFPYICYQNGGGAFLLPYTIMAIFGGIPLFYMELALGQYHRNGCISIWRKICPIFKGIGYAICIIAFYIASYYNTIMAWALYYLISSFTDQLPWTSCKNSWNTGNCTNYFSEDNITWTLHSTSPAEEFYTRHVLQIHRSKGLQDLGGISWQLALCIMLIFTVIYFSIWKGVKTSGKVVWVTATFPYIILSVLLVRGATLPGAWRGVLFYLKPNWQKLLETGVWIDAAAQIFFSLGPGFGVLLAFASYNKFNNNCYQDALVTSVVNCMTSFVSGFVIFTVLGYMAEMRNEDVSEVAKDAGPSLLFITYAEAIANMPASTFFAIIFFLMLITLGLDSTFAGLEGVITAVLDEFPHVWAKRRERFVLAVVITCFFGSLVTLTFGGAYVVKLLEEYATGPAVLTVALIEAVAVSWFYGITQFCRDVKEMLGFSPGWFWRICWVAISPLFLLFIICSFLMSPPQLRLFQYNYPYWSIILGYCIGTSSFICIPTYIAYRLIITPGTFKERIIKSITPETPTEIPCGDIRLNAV
T2 sequence (Q9GJT6 whole entry): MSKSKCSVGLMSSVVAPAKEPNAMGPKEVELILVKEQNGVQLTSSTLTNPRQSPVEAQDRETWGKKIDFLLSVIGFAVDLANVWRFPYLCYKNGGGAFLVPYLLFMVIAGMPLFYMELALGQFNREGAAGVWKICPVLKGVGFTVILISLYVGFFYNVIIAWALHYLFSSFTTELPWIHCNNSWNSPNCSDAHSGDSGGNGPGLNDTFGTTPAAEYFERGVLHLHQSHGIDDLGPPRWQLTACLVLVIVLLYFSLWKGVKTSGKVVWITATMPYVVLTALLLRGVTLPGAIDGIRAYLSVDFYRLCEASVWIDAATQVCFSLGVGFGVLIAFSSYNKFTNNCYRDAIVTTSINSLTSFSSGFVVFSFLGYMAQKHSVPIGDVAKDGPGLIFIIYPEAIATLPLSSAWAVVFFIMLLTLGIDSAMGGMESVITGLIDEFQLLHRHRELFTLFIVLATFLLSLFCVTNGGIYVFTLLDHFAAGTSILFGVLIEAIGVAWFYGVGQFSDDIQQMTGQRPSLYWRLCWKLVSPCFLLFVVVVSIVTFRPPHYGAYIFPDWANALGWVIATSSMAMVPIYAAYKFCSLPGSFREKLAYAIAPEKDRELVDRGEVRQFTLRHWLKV

Regarding `CC#Cc1ccc([C@@H]2C[C@@H]3CC[C@@H](O3)[C@H]2C(=O)OC)cc1` (relative stereo) [Compound O-1585, 2β-carbomethoxy-3α-(4′-propynylphenyl)-8-oxabicyclo(3.2.1)octane], the results for the 50% inhibitory concentration (IC50) in data set [1] and in data set [2] (setting [5]) were 0.152 ± 0.0265 µM and 0.446 ± 0.094 µM, respectively. The “selectivity for the serotonin over the dopamine transporter (in words)” value (shortened to “selectivity for the serotonin”) in data set [1] (monkey striatum) is reported as “moderately selective; also recorded: modest”. Moreover, the “SERT/DAT Selectivity” value in data set [1] (monkey striatum) turned out to be 3. The Ki at human SERT [3] was determined as 0.0761 ± 0.0105 µM; on human SERT [4] (setting [6]), 0.0567 ± 0.0104 µM.
With `COC(=O)[C@@H]1[C@H]2CC[C@H](C2)C[C@H]1c1ccc2ccccc2c1` (relative stereo) [Compound O-1670, 2β-carbomethoxy-3α-(2-naphthyl)-8-bicyclo(3.2.1)octane], the figures for the IC50 in data set [1] and in data set [2] were 0.0777 ± 0.0135 µM and 0.0212 ± 0.0041 µM, respectively. For the same molecule, the “selectivity for the serotonin” value in data set [1] (monkey striatum) is given as “relatively non-selective”. In addition, in data set [1] (monkey striatum), the “SERT/DAT Selectivity” value stood at 0.3. Moreover, the inhibition constant (Ki) was found to be 0.303 ± 0.0087 µM at human SERT [3] (setting [7]) and 0.425 ± 0.332 µM at human SERT [4].
`CC#Cc1ccc([C@H]2C[C@@H]3CC[C@@H](O3)[C@H]2C(=O)OC)cc1` (relative stereo) [Compound O-1577] displayed a melting point of 142 to 143 °C. Moreover, in data set [1], the IC50 is 0.0724 µM. Moreover, in data set [1] (monkey striatum), the “selectivity for the serotonin” value is reported as “modest” and the “SERT/DAT Selectivity” value is 8. Besides, the IC50 in data set [2] (setting [5]) is 0.545 ± 0.076 µM. The affinity on human SERT [3], expressed as Ki, was 0.0326 ± 0.00788 µM. Moreover, at human SERT [4] (setting [6]), the Ki amounted to 0.063 ± 0.0168 µM.
Regarding `C=C(C)c1ccc([C@@H]2C[C@@H]3CC[C@@H](O3)[C@H]2C(=O)OC)cc1` (relative stereo) [Compound O-1738, 2β-carbomethoxy-3α-(4-isopropenylphenyl)-8-oxabicyclo(3.2.1)octane], the IC50 in data set [1] came out at 0.158 ± 0.023 µM; in data set [2] (setting [5]) it was 0.912 ± 0.1 µM. Moreover, the “selectivity for the serotonin” value in data set [1] (monkey striatum) is on record as “moderately selective”. Moreover, the “SERT/DAT Selectivity” value in data set [1] (monkey striatum) was found to be 6. In addition, the Ki at human SERT [3] amounted to 0.218 ± 0.0451 µM; on human SERT [4] (setting [6]) it was 0.376 ± 0.074 µM.
In data set [1], `COC(=O)[C@H]1[C@@H](c2ccc(Cl)c(Cl)c2)C[C@@H]2CC[C@H]1O2` (relative stereo) [Compound O-1072, 2-β-carbomethoxy-3-β-(3,4-dichlorophenyl)-8-oxabicyclo(3.2.1)octane] gave an IC50 of 0.00466 ± 0.00124 µM. In data set [1] (monkey striatum), the “selectivity for the serotonin” value is recorded as “relatively non-selective” and the “SERT/DAT Selectivity” value came to 0.8. In data set [2], the IC50 was determined as 0.00388 ± 0.00093 µM. The Ki on human SERT [4] (setting [6]) is 0.01 to 0.02 µM. For the same molecule, the “blocked (3H)serotonin transport (in words)” value (“blocked” for short) at human SERT [4] is “low nanomolar range”.
As for `COC(=O)[C@H]1[C@@H](c2ccc3ccccc3c2)C[C@@H]2CC[C@H]1N2C` (relative stereo) [Compound O-1229, N-methyl-2β-carbomethoxy-3β(2′-naphthyl)-8-azabicyclo(3.2.1)octane], the IC50 in data set [1] is 0.00219 ± 0.00018 µM; in data set [2] it was 0.00049 ± 4e-05 µM. The “SERT/DAT Selectivity” value in data set [1] (monkey striatum) was 0.2. Besides, the Ki on human SERT [3] was determined as 0.00142 ± 0.00078 µM; at human SERT [4] (setting [6]), 0.00014 ± 7e-05 µM.
`C=C(C)c1ccc(C2CC3CCC(O3)C2C(=O)OC)cc1` (racemic) [Compound O-1739, 2β-carbomethoxy-3β-(4-isopropenylphenyl)-8-oxabicyclo(3.2.1)octane] yielded a melting point of 72.3 to 73.3 °C. For the same molecule, the IC50 in data set [1] was found to be 0.0198 ± 0.00075 µM. In addition, the “SERT/DAT Selectivity” value in data set [1] (monkey striatum) worked out at 52. Further, the half-maximal inhibitory concentration (IC50) in data set [2] (setting [5]) was determined as 1.02 µM. The same molecule showed a Ki on human SERT [3] of 0.0177 ± 0.0063 µM. The same molecule came in with a Ki on human SERT [4] (setting [6]) of 0.033 ± 0.002 µM. At human SERT [4], the “blocked” value is “low nanomolar range”.
For the molecule `COC(=O)C1C(c2ccc3ccccc3c2)CC2CCC1N2C` (stereo not drawn) [Compound O-1228, N-methyl-2β-carbomethoxy-3-(2′-naphthyl)-8-azabicyclo(3.2.1)octane], in data set [2] (setting [5]), the concentration for half-maximal inhibition (IC50) was determined as 0.00057 ± 0.00034 µM. Further, the inhibition constant Ki at human SERT [3] (setting [7]) turned out to be 0.00326 ± 0.00026 µM; at human SERT [4] (HEK-293 cells with human SERT, 20 nM (3H)serotonin, mean ± S.E.M., read-out: (3H)serotonin transport Ki) it was 0.00457 ± 0.00037 µM.
In the case of `COC(=O)[C@@H]1[C@H]2CC[C@H](C2)C[C@@H]1c1ccc(Cl)c(Cl)c1` (racemic) [Compound O-1391, 2-β-carbomethoxy-3-β-(3,4-dichlorophenyl)bicyclo(3.2.1)octane], the half-inhibitory concentration (IC50) is 0.0339 ± 0.00185 µM in data set [1] and 0.0135 ± 0.0009 µM in data set [2] (setting [5]). Also, in data set [1] (monkey striatum), the “selectivity for the serotonin” value is reported as “relatively non-selective”. Moreover, the “reduction of potency for the SERT on substitution of the 8-oxa with an 8-carba” value in data set [1] (monkey striatum, O-1391 versus O-1072) is given as 7 fold. In data set [1] (monkey striatum), the “SERT/DAT Selectivity” value is on record as 0.4. Besides, the inhibition constant Ki at human SERT [3] amounted to 0.01 ± 0.0043 µM; on human SERT [4] (setting [6]) it was 0.0111 ± 0.00744 µM. Moreover, the “blocked” value on human SERT [4] is “low nanomolar range”.
Regarding `COC(=O)[C@@H]1[C@H]2CC[C@H](C2)C[C@@H]1c1ccc2ccccc2c1` (relative stereo) [Compound O-1669, 2β-carbomethoxy-3β-(2-naphthyl)-8-bicyclo(3.2.1)octane], the IC50 in data set [1] is 0.0725 ± 0.0126 µM; in data set [2], 0.0271 ± 0.0001 µM. Moreover, in data set [1] (monkey striatum), the “selectivity for the serotonin” value is given as “relatively non-selective”. The “SERT/DAT Selectivity” value in data set [1] (monkey striatum) was 0.4. In addition, the Ki at human SERT [3] stood at 0.289 ± 0.15 µM; on human SERT [4] (setting [6]) it was 0.028 ± 0.002 µM. In addition, the “blocked” value on human SERT [4] is “low nanomolar range”.
On to `C=C(C)c1ccc(C2CC3CCC(O3)C2C(=O)OC)cc1` (single isomer, unassigned) [Compound O-1809, 2β-carbomethoxy-3β-(4-isopropenylphenyl)-8-oxabicyclo(3.2.1)octane], for which the concentration for half-maximal inhibition (IC50) in data set [1] was determined as 0.0102 ± 0.0021 µM; in data set [2] (setting [5]), 1.01 µM. For the same molecule, in data set [1] (monkey striatum), the “SERT/DAT Selectivity” value worked out at 99. Besides, the Ki was determined as 0.0096 ± 0.0013 µM at human SERT [3] and 0.016 ± 0.004 µM at human SERT [4] (setting [6]). In addition, the “blocked” value at human SERT [4] is reported as “low nanomolar range”.

The record behind these values is patent publication US6677338B2, “Serotonin transport inhibitors” (President and Fellows of Harvard College, priority 1997, dated 2004).
